# Assay results as given in the supplement of paper PMC10307832.
# Experiments:
# Assay in all cases: relative viability (nuclei count vs DMSO), 5 days (fraction); higher = more cells survive
# LXF-289 = system: LXF-289
# Method in brief: (§1)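 The day after seeding in 1536-well plates, lung cancer cell lines were treated by pin tool with a single drug, or with a fixed anchor-drug dose together with five library-drug doses (not always all listed) in √10 steps. After 5 days, a combined fix-and-stain solution (final 0.05% Triton X-100, 1% formaldehyde, 1 ug/ml Hoechst) was added. Nuclei counted on 4× images gave relative viability as treated counts over vehicle counts, reported as the median of duplicate plates.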
# NCI-H1944 = system: NCI-H1944
# Method in brief: as §1
# NCI-H2170 = system: NCI-H2170
# Method in brief: as §1
# ChaGo-K-1 = system: ChaGo-K-1
# Method in brief: as §1
# NCI-H647 = system: NCI-H647
# Method in brief: as §1
# EKVX = system: EKVX
# Method in brief: as §1
# NCI-H661 = system: NCI-H661
# Method in brief: as §1
# BEN = system: BEN
# Method in brief: as §1
# HCC-827 = system: HCC-827
# Method in brief: as §1
# RERF-LC-KJ = system: RERF-LC-KJ
# Method in brief: as §1
# NCI-H1355 = system: NCI-H1355
# Method in brief: as §1
# LK-2 = system: LK-2
# Method in brief: as §1
# NCI-H2126 = system: NCI-H2126
# Method in brief: as §1
# PC-14 = system: PC-14
# Method in brief: as §1
# HOP-62 = system: HOP-62
# Method in brief: as §1
# NCI-H1437 = system: NCI-H1437
# Method in brief: as §1
# NCI-H727 = system: NCI-H727
# Method in brief: as §1
# NCI-H1993 = system: NCI-H1993
# Method in brief: as §1
# SK-MES-1 = system: SK-MES-1
# Method in brief: as §1
# NCI-H1666 = system: NCI-H1666
# Method in brief: as §1
# LOU-NH91 = system: LOU-NH91
# Method in brief: as §1
# LCLC-103H = system: LCLC-103H
# Method in brief: as §1
# NCI-H441 = system: NCI-H441
# Method in brief: as §1
structure (smiles),measurement,setting,value
CCNC(=O)c1noc(-c2cc(C(C)C)c(O)cc2O)c1-c1ccc(CN2CCOCC2)cc1 [Luminespib] + CS(=O)(=O)N1CCN(Cc2cc3nc(-c4cccc5[nH]ncc45)nc(N4CCOCC4)c3s2)CC1 [Pictilisib] (partner 1 µM),relative viability,LXF-289; first compound 0.002 µM,0.75
same,relative viability,LXF-289; first compound 0.006325 µM,0.809
same,relative viability,LXF-289; first compound 0.02 µM,0.714
same,relative viability,LXF-289; first compound 0.06325 µM,0.121
same,relative viability,LXF-289; first compound 0.2 µM,0.087
same,relative viability,NCI-H1944; first compound 0.002 µM,0.337
same,relative viability,NCI-H1944; first compound 0.006325 µM,0.258
same,relative viability,NCI-H1944; first compound 0.02 µM,0.262
same,relative viability,NCI-H1944; first compound 0.06325 µM,0.28
same,relative viability,NCI-H1944; first compound 0.2 µM,0.22
same,relative viability,NCI-H2170; first compound 0.002 µM,0.304
same,relative viability,NCI-H2170; first compound 0.006325 µM,0.313
same,relative viability,NCI-H2170; first compound 0.02 µM,0.223
same,relative viability,NCI-H2170; first compound 0.06325 µM,0.165
same,relative viability,NCI-H2170; first compound 0.2 µM,0.155
same,relative viability,ChaGo-K-1; first compound 0.002 µM,0.782
same,relative viability,ChaGo-K-1; first compound 0.02 µM,0.501
same,relative viability,ChaGo-K-1; first compound 0.06325 µM,0.345
same,relative viability,ChaGo-K-1; first compound 0.2 µM,0.362
same,relative viability,NCI-H647; first compound 0.002 µM,0.511
same,relative viability,NCI-H647; first compound 0.006325 µM,0.439
same,relative viability,NCI-H647; first compound 0.02 µM,0.249
same,relative viability,NCI-H647; first compound 0.06325 µM,0.0858
same,relative viability,NCI-H647; first compound 0.2 µM,0.0845
same,relative viability,EKVX; first compound 0.002 µM,0.392
same,relative viability,EKVX; first compound 0.006325 µM,0.46
same,relative viability,EKVX; first compound 0.02 µM,0.229
same,relative viability,EKVX; first compound 0.06325 µM,0.226
same,relative viability,EKVX; first compound 0.2 µM,0.0934
same,relative viability,NCI-H661; first compound 0.002 µM,0.357
same,relative viability,NCI-H661; first compound 0.006325 µM,0.344
same,relative viability,NCI-H661; first compound 0.02 µM,0.287
same,relative viability,NCI-H661; first compound 0.06325 µM,0.276
same,relative viability,NCI-H661; first compound 0.2 µM,0.223
same,relative viability,BEN; first compound 0.002 µM,0.514
same,relative viability,BEN; first compound 0.006325 µM,0.597
same,relative viability,BEN; first compound 0.02 µM,0.332
same,relative viability,BEN; first compound 0.06325 µM,0.266
same,relative viability,BEN; first compound 0.2 µM,0.191
same,relative viability,HCC-827; first compound 0.002 µM,0.949
same,relative viability,HCC-827; first compound 0.006325 µM,1.02
same,relative viability,HCC-827; first compound 0.02 µM,0.802
same,relative viability,HCC-827; first compound 0.06325 µM,0.555
same,relative viability,HCC-827; first compound 0.2 µM,0.551
same,relative viability,RERF-LC-KJ; first compound 0.002 µM,0.665
same,relative viability,RERF-LC-KJ; first compound 0.006325 µM,0.636
same,relative viability,RERF-LC-KJ; first compound 0.02 µM,0.375
same,relative viability,RERF-LC-KJ; first compound 0.06325 µM,0.231
same,relative viability,RERF-LC-KJ; first compound 0.2 µM,0.182
same,relative viability,NCI-H1355; first compound 0.002 µM,0.411
same,relative viability,NCI-H1355; first compound 0.006325 µM,0.458
same,relative viability,NCI-H1355; first compound 0.02 µM,0.255
same,relative viability,NCI-H1355; first compound 0.06325 µM,0.143
same,relative viability,NCI-H1355; first compound 0.2 µM,0.152
same,relative viability,LK-2; first compound 0.002 µM,0.569
same,relative viability,LK-2; first compound 0.006325 µM,0.548
same,relative viability,LK-2; first compound 0.02 µM,0.373
same,relative viability,LK-2; first compound 0.06325 µM,0.312
same,relative viability,LK-2; first compound 0.2 µM,0.218
same,relative viability,NCI-H2126; first compound 0.002 µM,0.464
same,relative viability,NCI-H2126; first compound 0.006325 µM,0.503
same,relative viability,NCI-H2126; first compound 0.02 µM,0.399
same,relative viability,NCI-H2126; first compound 0.06325 µM,0.49
same,relative viability,NCI-H2126; first compound 0.2 µM,0.273
same,relative viability,PC-14; first compound 0.002 µM,0.698
same,relative viability,PC-14; first compound 0.006325 µM,0.588
same,relative viability,PC-14; first compound 0.02 µM,0.194
same,relative viability,PC-14; first compound 0.06325 µM,0.0484
same,relative viability,PC-14; first compound 0.2 µM,0.0383
same,relative viability,HOP-62; first compound 0.002 µM,0.678
same,relative viability,HOP-62; first compound 0.006325 µM,0.838
same,relative viability,HOP-62; first compound 0.02 µM,0.43
same,relative viability,HOP-62; first compound 0.06325 µM,0.164
same,relative viability,HOP-62; first compound 0.2 µM,0.0784
same,relative viability,NCI-H1437; first compound 0.002 µM,0.343
same,relative viability,NCI-H1437; first compound 0.006325 µM,0.495
same,relative viability,NCI-H1437; first compound 0.02 µM,0.249
same,relative viability,NCI-H1437; first compound 0.06325 µM,0.133
same,relative viability,NCI-H1437; first compound 0.2 µM,0.0978
same,relative viability,NCI-H727; first compound 0.002 µM,0.427
same,relative viability,NCI-H727; first compound 0.006325 µM,0.399
same,relative viability,NCI-H727; first compound 0.02 µM,0.264
same,relative viability,NCI-H727; first compound 0.06325 µM,0.123
same,relative viability,NCI-H727; first compound 0.2 µM,0.166
same,relative viability,NCI-H1993; first compound 0.002 µM,0.85
same,relative viability,NCI-H1993; first compound 0.006325 µM,0.836
same,relative viability,NCI-H1993; first compound 0.02 µM,0.744
same,relative viability,NCI-H1993; first compound 0.06325 µM,0.787
same,relative viability,NCI-H1993; first compound 0.2 µM,0.643
same,relative viability,SK-MES-1; first compound 0.002 µM,0.36
same,relative viability,SK-MES-1; first compound 0.006325 µM,0.418
same,relative viability,SK-MES-1; first compound 0.02 µM,0.271
same,relative viability,SK-MES-1; first compound 0.06325 µM,0.114
same,relative viability,SK-MES-1; first compound 0.2 µM,0.106
same,relative viability,NCI-H1666; first compound 0.002 µM,0.423
same,relative viability,NCI-H1666; first compound 0.006325 µM,0.375
same,relative viability,NCI-H1666; first compound 0.02 µM,0.315
same,relative viability,NCI-H1666; first compound 0.06325 µM,0.235
same,relative viability,NCI-H1666; first compound 0.2 µM,0.145
same,relative viability,LOU-NH91; first compound 0.002 µM,0.53
same,relative viability,LOU-NH91; first compound 0.006325 µM,0.566
same,relative viability,LOU-NH91; first compound 0.02 µM,0.469
same,relative viability,LOU-NH91; first compound 0.06325 µM,0.367
same,relative viability,LOU-NH91; first compound 0.2 µM,0.358
same,relative viability,LCLC-103H; first compound 0.002 µM,0.629
same,relative viability,LCLC-103H; first compound 0.006325 µM,0.5
same,relative viability,LCLC-103H; first compound 0.02 µM,0.466
same,relative viability,LCLC-103H; first compound 0.06325 µM,0.651
same,relative viability,LCLC-103H; first compound 0.2 µM,0.271
same,relative viability,NCI-H441; first compound 0.002 µM,0.479
same,relative viability,NCI-H441; first compound 0.006325 µM,0.513
same,relative viability,NCI-H441; first compound 0.02 µM,0.425
same,relative viability,NCI-H441; first compound 0.06325 µM,0.104
same,relative viability,NCI-H441; first compound 0.2 µM,0.0836
